Measurements reported in ChEMBL document CHEMBL1201862, “PubChem BioAssay data set” (2004).
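Tested at 5 concentrations; 48 h exposure; 96-well plates; endpoints linearly interpolated, else capped at highest concentration. GI50 is the concentration that inhibits growth by half.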 Active and inactive are the calls of the source. No stated cut-off is given here; in the data, active = GI50 up to about 1.1 µM and inactive = higher.

Assays:
Experiment in all cases: NCI anticancer screen, dose series, 48 h
[1] = tested on: SK-OV-3
[2] = tested on: M14
[3] = tested on: U-251
[4] = tested on: RXF 393
[5] = tested on: SN12C
[6] = tested on: HT-29
[7] = tested on: ACHN
[8] = tested on: SF-295
[9] = tested on: OVCAR-5
[10] = tested on: NCI-H460
[11] = tested on: T47D
[12] = tested on: BT-549
[13] = tested on: MDA-MB-435
[14] = tested on: A498
[15] = tested on: SNB-19
[16] = tested on: NCI-H23
[17] = tested on: SF-539
[18] = tested on: CCRF-CEM
[19] = tested on: NCI-H522
[20] = tested on: SR

Measured: GI50

O=C(Cc1csc(N/N=C2\C(=O)Nc3ccccc32)n1)Nc1ccccc1
inactive: [1] 30.3 µM | [2] 38.3 µM | [3] 22.6 µM | [4] 62.7 µM | [5] 36.6 µM | [6] 27 µM | [7] 21.6 µM | [8] 28.9 µM | [9] > 100 µM | [10] 31.6 µM | [11] 28.4 µM | [12] 41.7 µM | [13] 39.5 µM | [14] 40.6 µM | [15] 26.9 µM | [16] 38.9 µM | [17] 26.4 µM

COc1cc2oc(-c3ccc4c(c3)OCO4)c(OC)c(=O)c2c(OC)c1OC
inactive: [1] 44.7 µM | [2] > 100 µM | [3] 38.2 µM | [18] > 100 µM | [4] 32.7 µM | [5] > 100 µM | [6] > 100 µM | [7] 59.4 µM | [8] > 100 µM | [9] > 100 µM | [10] > 100 µM | [11] > 100 µM | [12] 38.7 µM | [13] > 100 µM | [14] 33.7 µM | [15] 44.3 µM | [19] > 100 µM | [16] 39.4 µM | [17] 45.2 µM

S=C(NCc1ccccc1)c1nc[nH]c1C(=S)NCc1ccccc1
inactive: [1] 12.7 µM | [2] 5.55 µM | [3] 5.87 µM | [18] 2.96 µM | [4] 11.1 µM | [5] 11.7 µM | [6] 6.84 µM | [7] 2.69 µM | [8] 4.57 µM | [9] 6.98 µM | [10] 4.06 µM | [11] 4.35 µM | [12] 13.3 µM | [13] 6.62 µM | [15] 5.4 µM | [19] 3.58 µM | [16] 6.93 µM | [17] 10.4 µM

Cc1nnc2sc(Cl)nn12
inactive: [1] 17.3 µM | [2] 13.6 µM | [3] 16.4 µM | [18] 3.85 µM | [4] > 10 µM | [5] 32.4 µM | [6] 16.7 µM | [7] 23.3 µM | [8] 17.7 µM | [9] 23 µM | [10] 18.5 µM | [11] 22.9 µM | [12] 17.7 µM | [13] 7.64 µM | [14] 31.3 µM | [15] 44.8 µM | [19] 10 µM | [16] 17.3 µM | [17] 20.9 µM

O=C1NC(=S)NC(=O)C1C(c1ccc(Cl)cc1)C1C(=O)NC(=S)NC1=O.c1ccncc1
inactive: [2] > 100 µM | [3] > 100 µM | [18] > 100 µM | [4] > 100 µM | [5] > 100 µM | [6] > 100 µM | [7] > 100 µM | [8] > 100 µM | [9] > 100 µM | [10] > 100 µM | [11] > 100 µM | [12] > 100 µM | [13] > 100 µM | [14] > 100 µM | [15] > 100 µM | [19] > 100 µM | [16] > 100 µM

CCC(C)[C@H](NC(=O)[C@H](Cc1ccccc1)NC(=O)N(CC)c1ccccc1)C(=O)N[C@@H](CC(C)C)C(=O)OC (some centres not stated)
inactive: [1] > 100 µM | [2] 37.6 µM | [3] 38.5 µM | [18] 21.4 µM | [4] 74.1 µM | [5] 38.6 µM | [7] 25.6 µM | [8] 59.7 µM | [9] > 100 µM | [11] 43.5 µM | [12] 33.5 µM | [13] 24 µM | [14] > 100 µM | [15] 35.4 µM | [16] 31 µM | [17] 24.2 µM

COc1ccc2c(c1)C1Oc3ccccc3CC1CO2 (configuration not stated)
inactive: [1] 97.5 µM | [2] 75.3 µM | [3] 91.8 µM | [18] > 100 µM | [4] 24.9 µM | [5] 35.4 µM | [6] 42 µM | [7] 60.1 µM | [8] 76.4 µM | [9] > 100 µM | [10] 96.8 µM | [11] 26.2 µM | [12] 52.2 µM | [13] 47 µM | [14] 34.4 µM | [15] > 100 µM | [19] 45 µM | [16] > 100 µM | [17] > 100 µM

CC(C)(C)OC(=O)NCCCCC(NC(=O)c1ccccc1)C(N)=O (configuration not stated)
inactive: [1] 99.1 µM | [2] > 100 µM | [3] > 100 µM | [18] > 100 µM | [4] > 100 µM | [5] > 100 µM | [6] > 100 µM | [7] > 100 µM | [8] > 100 µM | [9] > 100 µM | [10] > 100 µM | [11] > 100 µM | [12] > 100 µM | [13] > 100 µM | [14] > 100 µM | [15] > 100 µM | [19] > 100 µM | [16] > 100 µM | [17] > 100 µM

Cn1ccnc1Oc1ccc(Cl)cc1
inactive: [1] 47.4 µM | [2] 13.7 µM | [3] 17.9 µM | [4] 16.9 µM | [5] 13.6 µM | [6] 13.7 µM | [7] 12.8 µM | [9] 15.6 µM | [10] 30.3 µM | [11] 2.18 µM | [12] 16.9 µM | [13] 12.4 µM | [14] 16.9 µM | [15] 33 µM | [19] 2.28 µM | [16] 17.5 µM | [17] 11.9 µM

O=c1[nH]nc(Cc2ccc(Cl)cc2)n1Nc1ccccc1
inactive: [2] > 100 µM | [3] > 100 µM | [18] > 100 µM | [5] > 100 µM | [6] > 100 µM | [7] > 100 µM | [8] > 100 µM | [9] > 100 µM | [10] > 100 µM | [11] > 100 µM | [12] > 100 µM | [13] > 100 µM | [14] > 100 µM | [15] > 100 µM | [16] > 100 µM | [17] 80 µM

C[C@@H]1CCC2C(C)(C)C(/C=C\C=O)C3(C)OC213 (some centres not stated)
inactive: [1] 44.6 µM | [2] 65.2 µM | [3] 28.6 µM | [4] 33.3 µM | [6] 26.4 µM | [7] 71.4 µM | [8] 35.1 µM | [9] 24.5 µM | [10] 42 µM | [12] 34.8 µM | [13] 27.5 µM | [14] > 100 µM | [15] 45.4 µM | [19] 46 µM | [16] 35.6 µM

CCOC(=O)c1nnsc1N/N=C\c1ccc([N+](=O)[O-])cc1
inactive: [1] > 100 µM | [2] > 100 µM | [3] > 100 µM | [18] > 100 µM | [4] > 100 µM | [5] > 100 µM | [6] > 100 µM | [7] > 100 µM | [8] > 100 µM | [9] > 100 µM | [10] > 100 µM | [11] > 100 µM | [12] > 100 µM | [13] > 100 µM | [15] 70.1 µM | [19] > 100 µM | [16] > 100 µM

C=C1c2nc3ccccc3n2C=C(c2ccccc2)N1c1ccc(OC)cc1
inactive: [1] 34.6 µM | [2] 13.2 µM | [3] 37.8 µM | [18] 22.8 µM | [4] 11.7 µM | [5] 65.3 µM | [7] 13 µM | [8] 10.7 µM | [9] 43.7 µM | [10] 11.7 µM | [12] 13.5 µM | [13] 33.5 µM | [14] > 100 µM | [19] 1.63 µM | [20] 17.7 µM | [16] 11.4 µM | [17] 14 µM

COC(=O)C1=C(C(=O)OC)SC(=C2c3ccsc3-c3sccc32)S1
inactive: [1] 12.3 µM | [2] 36.6 µM | [3] 28.3 µM | [18] 38.1 µM | [4] 18.3 µM | [5] 65.8 µM | [6] 22.8 µM | [7] 74.8 µM | [8] 17.6 µM | [9] > 100 µM | [10] > 100 µM | [12] 29.4 µM | [13] > 100 µM | [14] 24.5 µM | [15] 67.6 µM | [20] 34 µM | [16] 16.1 µM | [17] 20.7 µM

CN(C)Cc1cc(/C=C/C(=O)c2ccc(Br)cc2)cc(CN(C)C)c1O
inactive: [1] 29.8 µM | [2] 31.2 µM | [18] 4.06 µM | [4] 19.2 µM | [5] 15.6 µM | [6] 18.8 µM | [7] 11.5 µM | [8] 21.8 µM | [9] 35.2 µM | [10] 19.3 µM | [11] 18.5 µM | [12] 15.1 µM | [13] 16.9 µM | [14] 13.6 µM | [15] 20.3 µM | [17] 13.1 µM

COc1cc2cc3c4cc(OC)c(OC)cc4cc[n+]3c(C)c2cc1OC [CORALYNE]
inactive: [1] > 100 µM | [3] 9.59 µM | [18] > 100 µM | [5] 5.74 µM | [6] 77.4 µM | [7] > 100 µM | [8] 28.6 µM | [9] > 100 µM | [10] 38.9 µM | [11] > 100 µM | [12] 10.8 µM | [13] > 100 µM | [14] 6.05 µM | [15] 13.4 µM | [19] 40 µM | [16] > 100 µM | [17] 41.7 µM
